Laboratory results: patent publication US20210145830A1, “MATERIALS AND METHODS FOR TREATING CANCER” (Mayo Foundation for Medical Education and Research, priority 2018, published 2021)
Entries after “also recorded” stand apart in the source; their conditions may differ.

How the values were obtained:
Assay type in all cases: cell-based
CART19 and UTDs = test: Ex vivo T cell expansion and CART generation with TP0903; conditions: low dose TP0903 during ex vivo manufacture
Excerpt: FIG. 14 contains graphs showing CART19 or untransduced T cell expansion with or without varied concentrations of TP0903. Low dose TP0903 enhanced the expansion of CART19 and UTDs during ex vivo manufacture of CARTs.
The murine anti-CD19 chimeric antigen receptor (single chain variable fragment derived from clone FMC63, CD8 hinge, 4-1BB costimulatory domain and CD3 zeta signaling domain) was generated de novo and cloned into a third generation lentivirus. Normal donor T cells were […] selected using negative selection Kit (Stem Cell), and expanded in vitro using anti-CD3/CD28 Dynabeads (Invitrogen, Life Technologies, Grand Island, N.Y., USA, added on the first day of culture). T cells were transduced with lentiviral supernatant one day following stimulation at a multiplicity of infection (MOI) of 3. The anti-CD3/CD28 Dynabeads were removed on day 6 and T cells were grown in T cell media (X-vivo 15 media, human serum 5%, penicillin, streptomycin and glutamax). CART cells were then cryopreserved on day 8 for future experiments. Prior to all experiments, T cells were thawed and rested overnight at 37° C.
CART cells were generated with increasing doses of TP0903. T cells were isolated (negative selection, STEM CELL kit) and stimulated with CD3/CD28 beads on day 0. On day 1, T cells were transduced with CAR19 lentivirus at MOI of 3. […]

CART cells = test: In vitro CART19 exhaustion assay
Experimental: (§1) FIG. 11 contains an exemplary timeline for an in vitro CART19 exhaustion assay in the presence of TP0903. T cells were incubated with target cells at a 1:5 ratio (experiments were done using JEKO cells as well as primary B cells). The low E:T ratio was used to induce a state of dysfunction of CART cells. Cells were cultured in the presence of increasing doses of TP0903. On day 5 of co-culture, cells were harvested, and expression of inhibitory receptors was analyzed. Co-culture in the presence of TP0903 reduces expression of PD1, TIM3, and LAG3 inhibitory receptors.
as §1, with “T” for “FIG. 11 contains an exemplary timeline for an in vitro CART19 exhaustion assay in the presence of TP0903. T”, “reduced” for “reduces”, “receptors. TP0903 reduced exhaustion receptors on CART cells (FIG. 12).” for “receptors.”

regulatory CART cells = test: Regulatory CART cells in CART19 co-culture with targets; conditions: increasing doses of TP0903; CART19 co-cultured with targets
Excerpt: FIG. 17. Increasing doses of TP0903 reduced regulatory CART cells when CART19 are co-cultured with their targets.

CART19 cells = test: RNA-seq of TP0903 treated vs non-treated CART19 cells
Experimental: FIG. 24A-B. A. Western blot analysis of p-LCK inhibition by TP0903 in CART19 cells. CART19 cells were incubated with lethally irradiated JeKo-1 in the presence of TP0903 at a 1 to 3 ratio for 24 hours. After the incubation, CART19 cells were purified with anti-CD19 micro beads. […] B. Comparison of gene expression between TP0903 treated CART19 cells and non-treated CART19 cells subpopulations using RNA-seq. CART19 cells from three biological replicates were thawed and stimulated with irradiated JeKo-1 (120 Gy) for 5 days. Each sample was treated with either 30 nM TP0903 (treated condition) or DMSO (untreated condition). Representative flow cytometric analysis of CART19 cells before RNA isolation (right). RNA-seq was performed on an Illumina […] by the Genomic Sequencing Core at Mayo Clinic.
FIG. 28A-E. A, Western blot analysis of p-LCK inhibition by TP-0903 in CART19 cells. CART19 cells were incubated with lethally irradiated JeKo-1 in the presence of TP0903 at a 1 to 3 ratio for 24 hours. After the incubation, CART19 cells were purified with anti-CD19 micro beads. B, Representative flow cytometric analysis of CART19 cells before RNA isolation. Principal component analysis (PCA) from RNA-seq analysis of untreated cells and cells treated with 30 nM of TP-0903. […]

[1] = test system: p-LCK, p38MAPK, GATA-3, T-bet in CART19 cells; test: Western blot of signaling molecules in stimulated CART19 cells
[2] = stimulated CART cells (FIG. 18)

CN1CCN(Cc2ccc(Nc3ncc(Cl)c(Nc4ccccc4S(=O)(=O)N(C)C)n3)cc2)CC1 [TP0903]
T cell expansion ex vivo and CART cell generation (CART19 and UTDs) (CART19 and UTDs): enhanced | expression of PD1, TIM3, and LAG3 inhibitory (exhaustion) receptors on CART cells (CART cells; 1:5 E:T, JEKO or primary B cells, increasing doses of TP0903, day 5): reduces; also recorded: downregulated in a dose depended manner | inhibitory receptors on activated CART cells (CART cells; CART19 with Jeko, Example 2): significantly downregulated | regulatory CART cells (regulatory CART cells): reduced | immune synapse related genes (cell junction, cell migration) (CART19 cells; activated CART cells treated with TP0903): significantly increased | differentially expressed genes in transcriptome vs non-treated cells (CART19 cells; activated CART cells treated with TP0903 (30 nM)): More than 100 genes | GATA-3 [1, 2]: reduction | P38 [1, 2]: reduction | P-JNK [1, 2]: reduction | T-bet [1, 2]: reduction | phospho LCK ([1]; stimulated CART cells, dose dependent (FIG. 18)): increase
